Source: patent US20260317308A1, “A SEQUENCE SELECTIVE DNA BINDING MOLECULE (SYNGRADER)” (ST. JUDE CHILDREN'S RESEARCH HOSPITAL, INC., priority 2023, published 2026)

Assays:
[1] = system: NALM6 (N6) Acute Lymphoblastic Leukemia (ALL) B cells expressing TCF3-PBX1-HaloTag; assay: Cell viability assay (CellTiterGlo) in NALM6 ALL cells with Doxycycline-inducible TCF3-PBX1-HaloTag, co-transfected with P2RY10 and CMV luciferase reporter plasmids; format: cell-based; settings: for loss in cell viability: loaded on WT TR DNA-Aptamer, vs DMSO no DOX
Description: The N6-TCF3-PBX1-HaloTag cells were Nucleofected (Lonza) with P2RY10-Luciferase and CMV promoter Luciferase reporter plasmid DNAs. After 24 hours, cells were treated with either wildtype (WT) or Mutant (MT) Transferrin Receptor (TR) WGGWWW DNA-Aptamers pre-loaded with PBX-SynTEF-FL (SnTF-FL), SynTEF-PBX-DRG1 (DRG1), and SynTEF-PBX-DRG2 (DRG2). The WT and MT DNA-Aptamers contain WGGWWW tail duplex DNA sequences that bind the PBX-SynTEF payloads, but only WT DNA-Aptamers can bind to TR present on the cell surface of NALM6 ALL cells, resulting in TR-mediated cellular internalization of the polyamide compounds. The MT DNA-Aptamer, has a GG to AA dinucleotide substitution which prevents binding to the TR (*see Cheng et al, 2022). Thus, cells treated with the MT DNA-Aptamer-SynTEF complexes serve as negative controls, since without a functional Aptamer, it is unlikely that the polyamides are taken up by the NALM6 cells. Doxycycline (DOX) was added at 0.1 ug/mL concentration to induce TCF3-PBX1-HaloTag expression, and 48 hours after DOX addition, cell viability was measured using CellTiterGlo reagent (Promega) which detects ATP present only in live cells. CellTiterGlo activity was calculated as Fold Change compared to “DMSO no DOX” treated cells which had the highest cell viability (dark blue bars). Error bars: Standard deviation. N>6 biological replicates.

TCF3-PBX1-HaloTag = assay: P2RY10 luciferase reporter assay in HEK293T cells expressing Doxycycline-inducible TCF3-PBX1-HaloTag; format: cell-based, human
Description: Cells were transfected with P2RY10-Luciferase reporter plasmid DNA which contains the 282 bp P2RY10 promoter sequence cloned downstream of a minimal TATA box promoter. After 24 hours, the cells were treated with 0.70 and 1.0 μM PBX-SynTEF2 (SnTF2), SynTEF-PBX-DRG1 (DRG1), and SynTEF-PBX-DRG2 (DRG2). The SynTEF-PBX-DRG1 compound carries the Thalidomide ligand for recruitment of the Cerbelon E3-Ligase, and SynTEF-PBX-DRG2 has a VHL ligand for the recruitment of the VHL E3-Ligase. Doxycycline (DOX) was added at 0.1 ug/mL concentration to induce TCF3-PBX1-HaloTag expression, and 48 hours after DOX addition, NanoGlo Luciferase expression (Promega) was measured in the medium (Luciferase protein is secreted by the cells). Luciferase activity was calculated as Fold Change compared to “DMSO without DOX” control cells (purple bar), Error bars: Standard deviation. N>6 biological replicates.

CSCCC(NC(=O)C(Cc1c[nH]c2ccccc12)NC(=O)C1CCCN1C(=O)C(Cc1ccc(O)cc1)NC(=O)C(Cc1ccccc1)NC(C)=O)C(=O)NC(CCCCNC(=O)CCOCCOCCOCCOCCOc1cccc2c1C(=O)N(C1CCC(=O)NC1=O)C2=O)C(=O)NCC(=O)NCCOCCOCCOCCC(=O)NCCCN(C)CCCNC(=O)CCNC(=O)c1cc(NC(=O)c2cc(NC(=O)c3cc(NC(=O)c4cc(NC(=O)CCCNC(=O)c5cc(NC(=O)c6cc(NC(=O)c7nc(NC(=O)c8nccn8C)cn7C)cn6C)cn5C)cn4C)cn3C)cn2C)cn1C (stereo not drawn) [SynTEF-PBX-DRG1]
toxicity to the cells (in words) ([1]; NALM6 cells, without DOX): toxic to the cells but only when internalized
loss in cell viability ([1]; with DOX 0.1 ug/mL, 48 h): ~ 85%
cell viability compared to +DOX DMSO and +DOX SynTF-FL cells (in words) ([1]; with DOX, loaded on MT DNA-Aptamer (negative control)): comparable viability
loss in cell viability ([1]; without DOX, both P2RY10 and CMV nucleofected cells): 70-80%
further increase of Luciferase expression above DMSO plus DOX baseline (in words) (TCF3-PBX1-HaloTag; both 0.70 and 1.0 μM, with DOX): fail to further increase Luciferase expression
activity of the oncogenic TCF3-PBX1 fusion in cell-based reporters (in words) (TCF3-PBX1-HaloTag; cell-based reporters): reduced activity
